Legend:
Mus musculus [1] = assay: (§1) Immunostimulatory activity in mouse B16/F10 cells implanted […] mouse assessed as increase in activation of tumor-microenvironment mediated helper T cells in tumor by measuring CD4-positive cell population at 25 mg/kg, ig administered once daily via gavage for 15 days measured 24 hrs post-last dose by immunostaining based flow cytometry (reference value: 4.95%); type: functional
Mus musculus [2] = assay: (§2) Effect on spleen helper T cell population in mouse B16/F10 cells implanted […] mouse assessed as CD4-positive cell population at 100 mg/kg, ig administered once daily via gavage for 15 days measured 24 hrs post-last dose by immunostaining based flow cytometry (reference value: 1.47 %); type: ADME, organism-based; settings: in vivo, po
[3] = target: Programmed cell death protein 1/Programmed cell death 1 ligand 1 (Homo sapiens) (UniProt Q15116+Q9NZQ7); assay: Ratio of EC50 for inhibition of human PD1/PDL1 protein-protein interaction in human PBMC-derived CD3-positive T cells co-cultured with human Hep3B cells expressing human PDL1/OS-8 assessed as increase in IFNgamma secretion to IC50 for inhibition of human PD1/PDL1 protein-protein interaction
[4] = AUC (0 to infinity) in Sprague-Dawley rat at 10 mg/kg, po by LC-MS/MS analysis; type: ADME, organism-based; parameters: dose 10 mg/kg, time infinity, route oral; settings: in vivo
[5] = Half life in Sprague-Dawley rat at 10 mg/kg, po by LC-MS/MS analysis; type: ADME, organism-based; settings: in vivo
[6] = Cmax in Sprague-Dawley rat at 1 mg/kg, iv by LC-MS/MS analysis; type: ADME, organism-based; parameters: dose 1 mg/kg, route intravenous; settings: in vivo
Mus musculus [7] = assay: as §2, with “CD3-positive/CD4-positive” for “CD4-positive”, “27.7” for “1.47”; type: ADME, organism-based; settings: in vivo, po
Mus musculus [8] = assay: as §1, with “activated cytotoxic” for “helper”, “CD3-positive/CD8-positive” for “CD4-positive”, “4.18%)” for “4.95%)”; type: functional
Mus musculus [9] = assay: as §1, with “activated cytotoxic” for “helper”, “CD3-positive” for “CD4-positive”, “20.8%)” for “4.95%)”; type: functional
[10] = AUC (0 to infinity) in Sprague-Dawley rat at 1 mg/kg, iv by LC-MS/MS analysis; type: ADME, organism-based; parameters: dose 1 mg/kg, time infinity, route intravenous; settings: in vivo
Mus musculus [11] = assay: as §1, with “activated cytotoxic” for “helper”, “CD3-positive” for “CD4-positive”, “100” for “25”, “20.8%)” for “4.95%)”; type: functional
Mus musculus [12] = assay: as §1, with “melanoma” for “CD4-positive”, “100” for “25”, “70%)” for “4.95%)”; type: functional
Mus musculus [13] = assay: as §1, with “activated cytotoxic” for “helper”, “CD8-positive” for “CD4-positive”, “2.2%)” for “4.95%)”; type: functional
H22 = assay: Antitumor activity against […] cells xenografted in BALB/c mouse assessed as tumor growth inhibition at 25 mg/kg, ip administered once daily 14 days relative to control; type: functional; settings: 336 h, read-out: TGI
[14] = Toxicity in Sprague-Dawley rat at 1 mg/kg, iv; type: organism-based; settings: in vivo
[15] = AUC (0 to t) in Sprague-Dawley rat at 1 mg/kg, iv by LC-MS/MS analysis; type: ADME, organism-based; settings: in vivo
Mus musculus [16] = assay: as §1, with “activated cytotoxic” for “helper”, “CD3-positive/CD8-positive” for “CD4-positive”, “100” for “25”, “4.18%)” for “4.95%)”; type: functional
Mus musculus [17] = assay: as §1, with “activated cytotoxic” for “helper”, “melanoma” for “CD4-positive”, “72.8%)” for “4.95%)”; type: functional
[18] = Toxicity in mouse B16/F10 cells implanted […] mouse assessed as histological changes in liver at 25 to 100 mg/kg, ig administered once daily via gavage for 15 days measured 24 hrs post-last dose by H and E staining based microscopic analysis; type: organism-based; settings: in vivo, po
[19] = Tmax in Sprague-Dawley rat at 1 mg/kg, iv by LC-MS/MS analysis; type: ADME, organism-based; settings: in vivo
Mus musculus [20] = assay: Effect on activated cytotoxic T cell population in mouse B16/F10 cells implanted […] mouse assessed as spleen cell population at 50 mg/kg, ig administered once daily via gavage for 15 days measured 24 hrs post-last dose by immunostaining based flow cytometry (reference value: 57.9 %); type: organism-based; settings: in vivo, po
[21] = Toxicity in mouse B16/F10 cells implanted […] mouse assessed as histological changes in kidney at 25 to 100 mg/kg, ig administered once daily via gavage for 15 days measured 24 hrs post-last dose by H and E staining based microscopic analysis; type: organism-based; settings: in vivo, po
[22] = Clearance in Sprague-Dawley rat at 1 mg/kg, iv by LC-MS/MS analysis; type: ADME, organism-based; settings: in vivo
Mus musculus [23] = assay: as §1, with “CD3-positive/CD4-positive” for “CD4-positive”, “50” for “25”, “6.15%)” for “4.95%)”; type: functional
B16-F10 [24] = assay: Cytotoxicity against mouse B16/F10 cells assessed as reduction in cell viability measured after 48 hrs by MTT assay; type: functional, cell-based; settings: B16-F10, 48 h
Mus musculus [25] = assay: Effect on activated cytotoxic T cell population in mouse B16/F10 cells implanted […] mouse assessed as spleen cell population at 100 mg/kg, ig administered once daily via gavage for 15 days measured 24 hrs post-last dose by immunostaining based flow cytometry (reference value: 57.9 %); type: organism-based; settings: in vivo, po
B16-F10 [26] = assay: Antitumor activity against mouse B16/F10 cells implanted in BALB/c mouse assessed as tumor growth inhibition at 25 mg/kg, ig administered once daily via gavage for 15 days relative to control; type: functional; settings: B16-F10, po, 360 h, read-out: TGI
Mus musculus [27] = assay: (§3) Effect on activated cytotoxic T cell population in mouse B16/F10 cells implanted […] mouse assessed as CD8-positive cell population in spleen at 25 mg/kg, ig administered once daily via gavage for 15 days measured 24 hrs post-last dose by immunostaining based flow cytometry (reference value: 0.383 %); type: organism-based; settings: in vivo, po
Mus musculus [28] = assay: Effect on activated cytotoxic T cell population in mouse B16/F10 cells implanted […] mouse assessed as CD3-positive/CD8-positive cell population in spleen at 50 mg/kg, ig administered once daily via gavage for 15 days measured 24 hrs post-last dose by immunostaining based flow cytometry (reference value: 14.2 %); type: organism-based; settings: in vivo, po
Mus musculus [29] = assay: as §1, with “CD3-positive/CD4-positive” for “CD4-positive”, “6.15%)” for “4.95%)”; type: functional
Mus musculus [30] = assay: as §1, with “CD3-positive” for “CD4-positive”, “100” for “25”, “18.9%)” for “4.95%)”; type: functional
Mus musculus [31] = assay: Effect on spleen helper T cell population in mouse B16/F10 cells implanted […] mouse assessed as CD3-positive/CD4-positive cell population at 25 mg/kg, ig administered once daily via gavage for 15 days measured 24 hrs post-last dose by immunostaining based flow cytometry (reference value: 27.7%); type: ADME, organism-based; settings: in vivo, po
Mus musculus [32] = assay: as §3, with “100” for “25”; type: organism-based; settings: in vivo, po

Cc1c(COc2cc(OCc3cccc(C#N)c3)c(CNC(C)(C)C(=O)O)cc2Cl)cccc1-c1ccccc1
Activity (Mus musculus [1]): 4.36%
Activity (Mus musculus [2]): 1.78%
Ratio [3]: 240
AUC(0-inf) [4]: 520 ng·h/mL
half-life [5]: 10.9 h
Cmax [6]: 1750 ng/mL
Activity (Mus musculus [7]): 25%
Activity (Mus musculus [8]): 12.4%
Activity (Mus musculus [9]): 18%
AUC(0-inf) [10]: 1050 ng·h/mL
Activity (Mus musculus [11]): 18.7%
Activity (Mus musculus [12]): 57%
Activity (Mus musculus [13]): 10.2%
inhibition in vivo at 25 mg/kg (H22): 76.5%
Activity [14]: Non-Toxic
AUC(0-t) [15]: 967 ng·h/mL
Activity (Mus musculus [16]): 23%
Activity (Mus musculus [17]): 59.4%
Activity [18]: Non-Toxic
Tmax [19]: 4.98 min
Activity (Mus musculus [20]): 55.4%
Activity [21]: Non-Toxic
clearance [22]: 15 mL/min/kg
Activity (Mus musculus [23]): 11.7%
IC50 (B16-F10 [24]): > 10 µM
Activity (Mus musculus [25]): 62.6%
inhibition in vivo at 25 mg/kg (B16-F10 [26]): 51.1%
Activity (Mus musculus [27]): 0.452%
Activity (Mus musculus [28]): 15.5%
Activity (Mus musculus [29]): 15.4%
Activity (Mus musculus [30]): 28%
Activity (Mus musculus [31]): 24.4%
Activity (Mus musculus [32]): 0.44%

From ChEMBL document CHEMBL4619786, “Discovery of Novel Resorcinol Dibenzyl Ethers Targeting the Programmed Cell Death-1/Programmed Cell Death-Ligand 1 Interaction as Potential Anticancer Agents” (J Med Chem, 2020)
